The record followed here is US8288410B2, “3-substituted quinolinium and 7H-indolo[2,3-c]quinolinium salts as new antiinfectives” (Florida Agricultural and Mechanical University, priority 2008, dated 2012).

For data set [1], the system named is Candida albicans ATTC 90028. Description: Antifungal susceptibility testing, Candida albicans. The data set is classed as cell-based. The conditions noted are these: Table 1. The protocol: (§1) Using standard susceptibility tests, the compounds of the invention were determined to be active against MRSA, C. neoformans and several other bacteria, fungi and protozoa. More specifically, the antibacterial and antifungal testing was carried out in the following manner. Cryptococcus neoformans ATCC 90113 and MRSA were obtained from the American Type Culture Collection (Manassas. Va.). Several others including Candida albicans ATTC 90028, Aspergillus fumigatus ATCC 90906 and Mycobacterium intracellulare (M. intracellulare) ATCC 23086 were also procured. Susceptibility testing was performed using a modified version of the National Committee for Clinical Laboratory Standards method. M. intracellulare was tested using a modified method of Franzblau, et al., J. Clin. Microbiol., 1998, 36, 362-366. DMSO solutions of samples were serially diluted in saline, and transferred in duplicate to 96 well microplates. Microbial suspensions were diluted in the broth to afford desired colony forming units/mL according to the 0.5 McFarland Standard [C. Albicans: either Saboraud Dextrose broth (SDB) or RPMI 1640, C. neoformans: SDB, A fumigatus: either YM broth (for MICS) or RPMI-1640+5% Alamar Blue.] After adding microbial cultures to the sampled afforded a final volume of 200 μL and final test concentration starting with 20 μg/mL, plates were read prior to and after final incubation using either fluorescence at 544ex/590em (M intracellulare, A. fumigatus) using the Polarstar galaxy reader (Biotek Instruments, Vermont). Growth (saline only), solvent and blank (media only) controls were included on each test plate. Drug controls [Ciprofloxacin (ICN Biomedicals, Ohio) for bacteria and Amphotericin B (ICN Biomedicals, Ohio) for fungi] were included in each assay. Percent growth was calculated and plotted versus test concentration to afford IC50 (sample concentration that affords 50% inhibition or growth of the organism). The minimum inhibitory concentration (MIC) was determined by visually inspecting the plate, and is defined as the lowest test concentration that allows no detectable growth (for Almar Blue assays, no color change from blue to pink).

For data set [2], the system named is Cryptococcus neoformans ATCC 90113. Description: Antifungal susceptibility testing, Cryptococcus neoformans. The data set is classed as cell-based. Conditions: Table 1. On the procedure: as §1
Data set [3] relates to Aspergillus fumigatus ATCC 90906. Description: Antifungal susceptibility testing, Aspergillus fumigatus. The data set is classed as cell-based. The conditions noted are these: Table 1; Aspergillus fumigatus. On the procedure: as §1
Data set [4] relates to MRSA. Nature of the data set: Antibacterial susceptibility testing, MRSA. The data set is classed as cell-based, methicillin resistant Staphylococcus aureus. Conditions: Table 1. The protocol: as §1

`[I-].c1ccc(CCCCC[n+]2cc(Oc3ccccc3)cc3ccccc32)cc1` [XYZ-III-83]: in data set [1], the “Ca IC50” value was “— ((-) = >20 μg/mL)”, the “Ca MFC” value is given as “— ((-) = >20 μg/mL)” and the “Ca MIC” value was “— ((-) = >20 μg/mL)”. Moreover, in data set [2], the “Cn IC50” value was “— ((-) = >20 μg/mL)”, the “Cn MFC” value is given as “— ((-) = >20 μg/mL)” and the “Cn MIC” value was “— ((-) = >20 μg/mL)”. For the same compound, in data set [3], the “A fu IC50” value was found to be 2.0 µg/mL, the “A fu MFC” value is on record as “— ((-) = >20 μg/mL)” and the “A fu MIC” value is “— ((-) = >20 μg/mL)”. In data set [4], the “MRS IC50” value came to 15 µg/mL, the “MRS MFC” value is given as “— ((-) = >20 μg/mL)” and the “MRS MIC” value worked out at 20 µg/mL.

Regarding `Brc1ccccc1Sc1cc2ccccc2[n+](CCCCCc2ccccc2)c1.[I-]` [XYZ-III-85], in data set [1], the “Ca IC50” value was 20 µg/mL, the “Ca MFC” value was “— ((-) = >20 μg/mL)” and the “Ca MIC” value was “— ((-) = >20 μg/mL)”. In addition, in data set [2], the “Cn IC50” value is 1.5 µg/mL, the “Cn MFC” value turned out to be 10 µg/mL and the “Cn MIC” value came to 5.0 µg/mL. In data set [3], the “A fu IC50” value was 0.50 µg/mL, the “A fu MFC” value is reported as “— ((-) = >20 μg/mL)” and the “A fu MIC” value was 5.0 µg/mL. In data set [4], the “MRS IC50” value was determined as 0.95 µg/mL, the “MRS MFC” value was 10 µg/mL and the “MRS MIC” value came out at 2.5 µg/mL.

For `Brc1cccc(Sc2cc3ccccc3[n+](CCCCCc3ccccc3)c2)c1.[I-]` [XYZ-III-87], in data set [1], the “Ca IC50” value is “— ((-) = >20 μg/mL)”, the “Ca MFC” value was “— ((-) = >20 μg/mL)” and the “Ca MIC” value was “— ((-) = >20 μg/mL)”. Also, in data set [2], the “Cn IC50” value stood at 2.0 µg/mL, the “Cn MFC” value is 20 µg/mL and the “Cn MIC” value turned out to be 5.0 µg/mL. Also, in data set [3], the “A fu IC50” value worked out at 3.0 µg/mL, the “A fu MFC” value was “— ((-) = >20 μg/mL)” and the “A fu MIC” value was 10 µg/mL. Also, in data set [4], the “MRS IC50” value turned out to be 2.0 µg/mL, the “MRS MFC” value turned out to be 20 µg/mL and the “MRS MIC” value stood at 5.0 µg/mL.

For `Brc1ccc(Sc2cc3ccccc3[n+](CCCCCc3ccccc3)c2)cc1.[I-]` [XYZ-III-89], in data set [1], the “Ca IC50” value came out at 15 µg/mL, the “Ca MFC” value is given as “— ((-) = >20 μg/mL)” and the “Ca MIC” value was “— ((-) = >20 μg/mL)”. Further, in data set [2], the “Cn IC50” value was found to be 1.0 µg/mL, the “Cn MFC” value was 10 µg/mL and the “Cn MIC” value was 2.5 µg/mL. In data set [3], the “A fu IC50” value was 1.5 µg/mL, the “A fu MFC” value was “— ((-) = >20 μg/mL)” and the “A fu MIC” value amounted to 2.5 µg/mL. For the same compound, in data set [4], the “MRS IC50” value is 1.5 µg/mL, the “MRS MFC” value was determined as 10 µg/mL and the “MRS MIC” value was found to be 2.5 µg/mL.

Consider `COc1ccccc1Sc1cc2ccccc2[n+](CCCCCc2ccccc2)c1.[I-]` [XYZ-IV-18], for which, in data set [1], the “Ca IC50” value is 3.0 µg/mL, the “Ca MFC” value is “— ((-) = >20 μg/mL)” and the “Ca MIC” value was 10 µg/mL. Also, in data set [2], the “Cn IC50” value was 0.85 µg/mL, the “Cn MFC” value came out at 5.0 µg/mL and the “Cn MIC” value was determined as 2.5 µg/mL. Moreover, in data set [3], the “A fu IC50” value amounted to 0.09 µg/mL, the “A fu MFC” value was 10 µg/mL and the “A fu MIC” value was found to be 1.3 µg/mL. Besides, in data set [4], the “MRS IC50” value was 0.25 µg/mL, the “MRS MFC” value turned out to be 5.0 µg/mL and the “MRS MIC” value turned out to be 0.63 µg/mL.

On to `Fc1ccccc1Sc1cc2ccccc2[n+](CCCCCc2ccccc2)c1.[I-]` [XYZ-IV-19], for which, in data set [1], the “Ca IC50” value was determined as 2.5 µg/mL, the “Ca MFC” value stood at 20 µg/mL and the “Ca MIC” value amounted to 10 µg/mL. Besides, in data set [2], the “Cn IC50” value worked out at 0.25 µg/mL, the “Cn MFC” value is 2.5 µg/mL and the “Cn MIC” value turned out to be 0.63 µg/mL. In addition, in data set [3], the “A fu IC50” value came out at 0.20 µg/mL, the “A fu MFC” value is listed as “— ((-) = >20 μg/mL)” and the “A fu MIC” value was 0.31 µg/mL. For the same compound, in data set [4], the “MRS IC50” value was determined as 0.40 µg/mL, the “MRS MFC” value amounted to 5.0 µg/mL and the “MRS MIC” value amounted to 0.63 µg/mL.

Take `COc1cccc(Sc2cc3ccccc3[n+](CCCCCc3ccccc3)c2)c1.[I-]` [XYZ-IV-20]: in data set [1], the “Ca IC50” value turned out to be 7.0 µg/mL, the “Ca MFC” value is “— ((-) = >20 μg/mL)” and the “Ca MIC” value is 20 µg/mL. In data set [2], the “Cn IC50” value was 1.5 µg/mL, the “Cn MFC” value stood at 10 µg/mL and the “Cn MIC” value came out at 2.5 µg/mL. In data set [3], the “A fu IC50” value was determined as 0.55 µg/mL, the “A fu MFC” value was “— ((-) = >20 μg/mL)” and the “A fu MIC” value is 1.3 µg/mL. In data set [4], the “MRS IC50” value was found to be 0.70 µg/mL, the “MRS MFC” value is 10 µg/mL and the “MRS MIC” value amounted to 1.3 µg/mL.

For the compound `Fc1cccc(Sc2cc3ccccc3[n+](CCCCCc3ccccc3)c2)c1.[I-]` [XYZ-IV-21], in data set [1], the “Ca IC50” value amounted to 3.0 µg/mL, the “Ca MFC” value amounted to 20 µg/mL and the “Ca MIC” value was found to be 10 µg/mL. Moreover, in data set [2], the “Cn IC50” value is 0.40 µg/mL, the “Cn MFC” value is 2.5 µg/mL and the “Cn MIC” value is 0.63 µg/mL. For the same compound, in data set [3], the “A fu IC50” value turned out to be 0.10 µg/mL, the “A fu MFC” value is reported as “— ((-) = >20 μg/mL)” and the “A fu MIC” value was found to be 0.16 µg/mL. In data set [4], the “MRS IC50” value was 0.20 µg/mL, the “MRS MFC” value amounted to 20 µg/mL and the “MRS MIC” value was 0.63 µg/mL.

As for `FC(F)(F)c1ccccc1Sc1cc2ccccc2[n+](CCCCCc2ccccc2)c1.[I-]` [XYZ-IV-25], in data set [1], the “Ca IC50” value was determined as 0.4 µg/mL, the “Ca MFC” value was 2.5 µg/mL and the “Ca MIC” value was 1.3 µg/mL. In data set [2], the “Cn IC50” value worked out at 0.06 µg/mL, the “Cn MFC” value was 0.63 µg/mL and the “Cn MIC” value turned out to be 0.16 µg/mL. In data set [3], the “A fu IC50” value worked out at 0.03 µg/mL, the “A fu MFC” value stood at 10 µg/mL and the “A fu MIC” value was 0.08 µg/mL. In data set [4], the “MRS IC50” value came out at 0.05 µg/mL, the “MRS MFC” value stood at 2.5 µg/mL and the “MRS MIC” value stood at 0.16 µg/mL.

Consider `[I-].[O-][S+](c1ccccc1)c1cc2ccccc2[n+](CCCCCc2ccccc2)c1` (stereo not shown) [XYZ-IV-79], for which, in data set [1], the “Ca IC50” value is reported as “— ((-) = >20 μg/mL)”, the “Ca MFC” value is reported as “— ((-) = >20 μg/mL)” and the “Ca MIC” value is “— ((-) = >20 μg/mL)”. In addition, in data set [2], the “Cn MFC” value is “— ((-) = >20 μg/mL)” and the “Cn MIC” value is reported as “— ((-) = >20 μg/mL)”. Moreover, in data set [3], the “A fu IC50” value is given as “— ((-) = >20 μg/mL)”, the “A fu MFC” value was “— ((-) = >20 μg/mL)” and the “A fu MIC” value was “— ((-) = >20 μg/mL)”. Besides, in data set [4], the “MRS IC50” value was 1.5 µg/mL, the “MRS MFC” value is on record as “— ((-) = >20 μg/mL)” and the “MRS MIC” value came to 5.0 µg/mL.

Consider `[I-].[O-][S+](c1ccc(F)cc1)c1cc2ccccc2[n+](CCCCCc2ccccc2)c1` (stereo not shown) [XYZ-IV-84], for which, in data set [1], the “Ca IC50” value is reported as “— ((-) = >20 μg/mL)”, the “Ca MFC” value is recorded as “— ((-) = >20 μg/mL)” and the “Ca MIC” value is on record as “— ((-) = >20 μg/mL)”. In data set [2], the “Cn MFC” value was “— ((-) = >20 μg/mL)” and the “Cn MIC” value is reported as “— ((-) = >20 μg/mL)”. In data set [3], the “A fu IC50” value was “— ((-) = >20 μg/mL)”, the “A fu MFC” value was “— ((-) = >20 μg/mL)” and the “A fu MIC” value is “— ((-) = >20 μg/mL)”. In data set [4], the “MRS IC50” value stood at 0.80 µg/mL, the “MRS MFC” value came out at 20 µg/mL and the “MRS MIC” value was determined as 5.0 µg/mL.

On to `[I-].[O-][S+](c1cccc(C(F)(F)F)c1)c1cc2ccccc2[n+](CCCCCc2ccccc2)c1` (stereo not shown) [XYZ-IV-87], for which, in data set [1], the “Ca IC50” value is recorded as “— ((-) = >20 μg/mL)”, the “Ca MFC” value is “— ((-) = >20 μg/mL)” and the “Ca MIC” value was “— ((-) = >20 μg/mL)”. Besides, in data set [2], the “Cn IC50” value stood at 6.5 µg/mL, the “Cn MFC” value came to 20 µg/mL and the “Cn MIC” value stood at 20 µg/mL. Further, in data set [3], the “A fu IC50” value was “— ((-) = >20 μg/mL)”, the “A fu MFC” value is “— ((-) = >20 μg/mL)” and the “A fu MIC” value was “— ((-) = >20 μg/mL)”. Besides, in data set [4], the “MRS IC50” value stood at 0.25 µg/mL, the “MRS MFC” value was 20 µg/mL and the “MRS MIC” value was 1.3 µg/mL.
